# In patent US7338950B2, “Amide compounds as ion channel ligands and uses thereof” (Renovis, Inc., priority 2003, dated 2008):
# Target: T1, VR1 receptor (capsaicin induced current in dorsal root ganglion (DRG) neurons) (Rattus norvegicus, UniProt O35433)
# T1 construct: Dorsal root ganglion (DRG) neurons were recovered from either neonatal or adult rats; endogenous in cells; host or cells: primary rat dorsal root ganglion neurons
# Assay: Whole-cell patch clamp electrophysiology, capsaicin induced current in DRG neurons
# Format: cell-based
# Settings: 20 nM, 40 nM, 100 nM and 200 nM
# Procedure: Dorsal root ganglion (DRG) neurons were recovered from either neonatal or adult rats and plated onto poly-D-lysine coated glass coverslips. The plated neurons were transferred into a chamber to allow drug solutions to be added to the cells using a computer-controlled solenoid-valve based perfusion system. The cells were imaged using standard DIC optics. Cells were patched using finely-pulled glass electrodes. Voltage-clamp electrophysiology experiments were carried out using an Axon Instruments Multiclamp amplified controlled by pCLAMP8 software.
# The cells were placed into a whole-cell voltage clamp and help at a voltage of −80 mV while monitoring the membrane current in gap-free recording mode. 500 nM capsaicin was added for 30 seconds as a control. Test compounds at various concentrations at ranging from (10-1000 nM) were added to the cells for 1 minute prior to a 30 second capsaicin application. Differences between control experiments and drug positive capsaicin experiments were used to determine the efficacy of each test compound. All compounds that inhibited capsaicin induced current greater than 50% were considered positives.
# T1 sequence (O35433 whole entry): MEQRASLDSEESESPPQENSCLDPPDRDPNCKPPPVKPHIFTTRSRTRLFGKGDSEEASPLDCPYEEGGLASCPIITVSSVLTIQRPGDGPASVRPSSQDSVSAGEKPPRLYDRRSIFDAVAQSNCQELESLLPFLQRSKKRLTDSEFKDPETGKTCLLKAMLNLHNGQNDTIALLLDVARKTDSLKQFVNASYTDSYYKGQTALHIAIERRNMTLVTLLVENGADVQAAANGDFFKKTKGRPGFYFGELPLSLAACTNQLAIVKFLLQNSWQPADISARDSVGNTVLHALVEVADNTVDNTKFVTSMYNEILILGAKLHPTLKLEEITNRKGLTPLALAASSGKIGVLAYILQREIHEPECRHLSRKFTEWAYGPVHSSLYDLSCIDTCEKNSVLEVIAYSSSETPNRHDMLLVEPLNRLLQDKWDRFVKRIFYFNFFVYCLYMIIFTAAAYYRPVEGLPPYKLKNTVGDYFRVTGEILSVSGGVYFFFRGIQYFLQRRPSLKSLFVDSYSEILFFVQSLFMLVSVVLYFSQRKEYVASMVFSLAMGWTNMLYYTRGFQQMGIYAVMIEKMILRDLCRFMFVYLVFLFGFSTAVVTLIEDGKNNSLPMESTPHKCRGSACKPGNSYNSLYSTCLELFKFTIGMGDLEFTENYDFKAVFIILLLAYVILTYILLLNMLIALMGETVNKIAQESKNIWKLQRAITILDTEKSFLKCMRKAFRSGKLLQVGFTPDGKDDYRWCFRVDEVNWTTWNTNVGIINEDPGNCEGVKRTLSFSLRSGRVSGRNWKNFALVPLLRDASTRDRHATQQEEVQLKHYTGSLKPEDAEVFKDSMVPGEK
row,Compound,dose response of inhibiting a capsaicin induced calcium ion influx (FIG. 4)
1,O=C(NCc1ccc(Cl)c(Cl)c1)c1ccc(-c2ncccc2Cl)cc1 [Compound 24],increasing effectiveness

# Same assay, conditions: DRG neuron; 200 nM, treatment time 25 seconds; 500 nM capsaicin, rat DRG neurons
row,Compound,inhibition at 0.2 µM [%]
1,O=C(NCc1ccc(Cl)c(Cl)c1)c1ccc(-c2ncccc2Cl)cc1 [Compound 24],100

# Tested on: VR1 receptor (293 cells expressing capsaicin-insensitive VR1 receptor variants)
# Assay: High throughput screening of VR1 antagonists using a calcium imaging assay (Fura2, pH 5.1 stimulus);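 also: Fura2 ratiometric fluorescence read every 4 s over 3 min, response taken as peak ratio minus baseline before pre-treatment, compound pre-treatment preceding acid challenge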
# Settings: 1 uM compound; inhibition of calcium ion influx
row,Compound,% Inhibition @ 1 uM
1,O=C(Nc1ncc(C(F)(F)F)cc1Cl)c1ccc(-c2ncccc2Cl)cc1F [Compound 1115],+ (compound exhibited 0-25% inhibition of calcium ion influx induced by capsaicin stimulation)
2,COc1ccc(NC(=O)c2ccc(-c3ncccc3Cl)cc2)cn1 [Compound 1049],+ (compound exhibited 0-25% inhibition of calcium ion influx induced by capsaicin stimulation)
3,COc1cccc(NC(=O)c2ccc(-c3ncccc3Cl)cc2F)c1 [Compound 1091],+ (compound exhibited 0-25% inhibition of calcium ion influx induced by capsaicin stimulation)
4,O=C(Nc1ccc(Cl)c(C(=O)O)c1)c1ccc(-c2ncccc2Cl)c(F)c1 [Compound 1183],++++ (compound exhibited 75% or greater inhibition of calcium ion influx induced by capsaicin stimulation)
5,O=C(Nc1ccc(N2CCOCC2)cc1)c1ccc(-c2ncccc2Cl)cc1 [Compound 1062],+ (compound exhibited 0-25% inhibition of calcium ion influx induced by capsaicin stimulation)
6,COc1ccc(NC(=O)c2ccc(-c3ncccc3Cl)c(OC)c2)cc1Cl [Compound 1229],+++ (compound exhibited 50-75% inhibition of calcium ion influx induced by capsaicin stimulation)
7,O=C(Nc1ccccc1Cl)c1ccc(-c2ncccc2Cl)cc1 [Compound 1032],+ (compound exhibited 0-25% inhibition of calcium ion influx induced by capsaicin stimulation)
8,COc1cccc(NC(=O)c2ccc(-c3ncccc3Cl)c(OC)c2)c1 [Compound 1213],++ (compound exhibited 25-50% inhibition of calcium ion influx induced by capsaicin stimulation)
9,O=C(Nc1cc[nH]n1)c1ccc(-c2ncccc2Cl)c(F)c1 [Compound 1175],+ (compound exhibited 0-25% inhibition of calcium ion influx induced by capsaicin stimulation)
10,O=C(Nc1ccc(OC(F)(F)F)cc1)c1ccc(-c2ncccc2Cl)cc1 [Compound 1293],+ (compound exhibited 0-25% inhibition of calcium ion influx induced by capsaicin stimulation)
11,O=C(Nc1ccc(F)cc1)c1ccc(-c2ncccc2Cl)c(F)c1 [Compound 1131],+ (compound exhibited 0-25% inhibition of calcium ion influx induced by capsaicin stimulation)
12,COc1cc(C(=O)NC(C)(C)C)ccc1-c1ncccc1Cl [Compound 1204],+ (compound exhibited 0-25% inhibition of calcium ion influx induced by capsaicin stimulation)
13,COc1ccc(NC(=O)c2ccc(-c3ncccc3Cl)c(OC)c2)cc1OC [Compound 1257],+ (compound exhibited 0-25% inhibition of calcium ion influx induced by capsaicin stimulation)
14,O=C(Nc1cccc(Br)c1)c1ccc(-c2ncccc2Cl)cc1F [Compound 1100],++++ (compound exhibited 75% or greater inhibition of calcium ion influx induced by capsaicin stimulation)
15,COc1ccc(NC(=O)c2ccc(-c3ncccc3Cl)cc2F)cn1 [Compound 1120],+ (compound exhibited 0-25% inhibition of calcium ion influx induced by capsaicin stimulation)
16,O=C(Nc1ccncn1)c1ccc(-c2ncccc2Cl)cn1 [Compound 1336],++++ (compound exhibited 75% or greater inhibition of calcium ion influx induced by capsaicin stimulation)

row,Compound,% Inhibition @ 1 uM
1,COc1cc(C(=O)Nc2ccnc(Cl)c2)ccc1-c1ncccc1Cl [Compound 1248],+ (compound exhibited 0-25% inhibition of calcium ion influx induced by capsaicin stimulation)
2,O=C(Nc1nccs1)c1ccc(-c2ncccc2Cl)cc1 [Compound 1055],+ (compound exhibited 0-25% inhibition of calcium ion influx induced by capsaicin stimulation)
3,O=C(Nc1ccc(Br)cn1)c1ccc(-c2ncccc2Cl)cc1 [Compound 1066],++ (compound exhibited 25-50% inhibition of calcium ion influx induced by capsaicin stimulation)
4,O=C(Nc1cccnc1Cl)c1ccc(-c2ncccc2Cl)cc1 [Compound 1047],++ (compound exhibited 25-50% inhibition of calcium ion influx induced by capsaicin stimulation)
5,O=C(Nc1cccc(Cl)c1)c1ccc(-c2ncccc2Cl)cc1 [Compound 1029],+ (compound exhibited 0-25% inhibition of calcium ion influx induced by capsaicin stimulation)
6,Cc1cccnc1NC(=O)c1ccc(-c2ncccc2Cl)cc1 [Compound 1065],++ (compound exhibited 25-50% inhibition of calcium ion influx induced by capsaicin stimulation)
7,N#Cc1cccc(NC(=O)c2ccc(-c3ncccc3Cl)cc2F)c1 [Compound 1101],++++ (compound exhibited 75% or greater inhibition of calcium ion influx induced by capsaicin stimulation)
8,COc1cc(C(=O)Nc2cccc(C(=O)O)c2)ccc1-c1ncccc1Cl [Compound 1258],+ (compound exhibited 0-25% inhibition of calcium ion influx induced by capsaicin stimulation)
9,O=C(Nc1ccc(F)cc1[N+](=O)[O-])c1ccc(-c2ncccc2Cl)c(F)c1 [Compound 1149],++++ (compound exhibited 75% or greater inhibition of calcium ion influx induced by capsaicin stimulation)
10,O=C(Nc1ccccc1CCO)c1ccc(-c2ncccc2Cl)cc1 [Compound 1040],+++ (compound exhibited 50-75% inhibition of calcium ion influx induced by capsaicin stimulation)
11,N#Cc1cccc(NC(=O)c2ccc(-c3ncccc3Cl)cc2)c1 [Compound 1039],+ (compound exhibited 0-25% inhibition of calcium ion influx induced by capsaicin stimulation)
12,O=C(Nc1ccc(C(F)(F)F)cn1)c1ccc(-c2ncccc2Cl)cc1 [Compound 1067],++ (compound exhibited 25-50% inhibition of calcium ion influx induced by capsaicin stimulation)
13,O=C(Nc1ccc(Cl)nc1)c1ccc(-c2ncccc2Cl)c(F)c1 [Compound 1169],+ (compound exhibited 0-25% inhibition of calcium ion influx induced by capsaicin stimulation)
14,COc1cc(C(=O)Nc2ccc(C(F)(F)F)cc2)ccc1-c1ncccc1Cl [Compound 1230],++ (compound exhibited 25-50% inhibition of calcium ion influx induced by capsaicin stimulation)
15,COc1cc(C(=O)Nc2cccc(Cl)c2Cl)ccc1-c1ncccc1Cl [Compound 1216],++++ (compound exhibited 75% or greater inhibition of calcium ion influx induced by capsaicin stimulation)
16,O=C(Nc1ccncc1)c1ccc(-c2ncccc2Cl)cc1F [Compound 1079],+ (compound exhibited 0-25% inhibition of calcium ion influx induced by capsaicin stimulation)
